Measurements taken from US12522602B2, “Derivatives having 2,3-dihydro-1H-indene or 2,3-dihydrobenzofuran moiety or pharmaceutically acceptable salt thereof and pharmaceutical compositions comprising the same” (YUHAN CORPORATION, priority 2019, dated 2026).

These compounds were tested on GM1 production in Jurkat cells (assay: cells). Details: Homo sapiens, Jurkat, 72 h.
Type: cell-based

In order of rising IC50:
1. CC1(C)Cc2cc(-c3ccccc3Cl)ccc2C1NC(=O)O[C@@H]1CN2CCC1CC2 (stereo partly drawn) [Example 82, (S)-quinuclidin-3-yl (5-(2-chlorophenyl)-2,2-dimethyl-2,3-dihydro-1H-inden-1-yl)carbamate]  3.2 nM
2. CCCOc1ccc(-c2ccc3c(c2)CC(CC)(CC)C3NC(=O)O[C@@H]2CN3CCC2CC3)cc1 (stereo partly drawn) [Example 285, (S)-quinuclidin-3-yl (2,2-diethyl-5-(4-propoxyphenyl)-2,3-dihydro-1H-inden-1-yl)carbamate]  3.7 nM
3. COc1ccc(OC)c(-c2ccc3c(c2)CC(C)(C)C3NC(=O)O[C@@H]2CN3CCC2CC3)c1 (stereo partly drawn) [Example 167, (S)-quinuclidin-3-yl (5-(2,5-dimethoxyphenyl)-2,2-dimethyl-2,3-dihydro-1H-inden-1-yl)carbamate]  3.8 nM
4. CC1(C)Cc2cc(-c3cccc(C(F)(F)F)c3)ccc2C1NC(=O)O[C@@H]1CN2CCC1CC2 (stereo partly drawn) [Example 79, (S)-quinuclidin-3-yl (2,2-dimethyl-5-(3-(trifluoromethyl)phenyl)-2,3-dihydro-1H-inden-1-yl)carbamate]  3.9 nM
5. CCC1(CC)Cc2cc(-c3ccc(OC(C)C)cc3)ccc2C1NC(=O)O[C@@H]1CN2CCC1CC2 (stereo partly drawn) [Example 286, (S)-quinuclidin-3-yl (2,2-diethyl-5-(4-isopropoxyphenyl)-2,3-dihydro-1H-inden-1-yl)carbamate]  4.1 nM
6. Cc1ccc(Cl)c(-c2ccc3c(c2)CC(C)(C)C3NC(=O)O[C@@H]2CN3CCC2CC3)c1 (stereo partly drawn) [Example 223, (S)-quinuclidin-3-yl (5-(2-chloro-5-methylphenyl)-2,2-dimethyl-2,3-dihydro-1H-inden-1-yl)carbamate]  5.2 nM
7. CCCOc1ccc(-c2ccc3c(c2)CC(C)(C)C3NC(=O)O[C@@H]2CN3CCC2CC3)cn1 (stereo partly drawn) [Example 265, (S)-quinuclidin-3-yl (2,2-dimethyl-5-(6-propoxypyridin-3-yl)-2,3-dihydro-1H-inden-1-yl)carbamate]  6.7 nM
8. COCCOc1cccc(-c2ccc3c(c2)CC(C)(C)C3NC(=O)O[C@@H]2CN3CCC2CC3)c1 (stereo partly drawn) [Example 98, (S)-quinuclidin-3-yl (5-(3-(2-methoxyethoxy)phenyl)-2,2-dimethyl-2,3-dihydro-1H-inden-1-yl)carbamate]  7.5 nM
9. CCOc1ccc(-c2ccc3c(c2)CC(CC)(CC)C3NC(=O)O[C@@H]2CN3CCC2CC3)cc1 (stereo partly drawn) [Example 284, (S)-quinuclidin-3-yl (5-(4-ethoxyphenyl)-2,2-diethyl-2,3-dihydro-1H-inden-1-yl)carbamate]  8.5 nM
10. COCCOc1ccc(-c2ccc3c(c2)CC(C)(C)C3NC(=O)O[C@@H]2CN3CCC2CC3)cc1 (stereo partly drawn) [Example 97, (S)-quinuclidin-3-yl (5-(4-(2-methoxyethoxy)phenyl)-2,2-dimethyl-2,3-dihydro-1H-inden-1-yl)carbamate]  9.3 nM
11. CC1(C)CC(NC(=O)O[C@@H]2CN3CCC2CC3)c2ccc(-c3cccc(C(F)(F)F)c3)cc21 (stereo partly drawn) [Example 401, (S)-quinuclidin-3-yl (3,3-dimethyl-5-(3-(trifluoromethyl)phenyl)-2,3-dihydro-1H-inden-1-yl)carbamate]  15.1 nM
12. COc1ccc(Cl)cc1-c1cc2c(cc1OC)C(NC(=O)O[C@@H]1CN3CCC1CC3)C(C)(C)C2 (stereo partly drawn) [Example 327, (S)-quinuclidin-3-yl (5-(5-chloro-2-methoxyphenyl)-6-methoxy-2,2-dimethyl-2,3-dihydro-1H-inden-1-yl)carbamate]  16.8 nM
13. CCCCOc1c(C)cc(-c2cc3c(cc2OC)C(NC(=O)O[C@@H]2CN4CCC2CC4)C(C)(C)C3)cc1C (stereo partly drawn) [Example 331, (S)-quinuclidin-3-yl (5-(4-butoxy-3,5-dimethylphenyl)-6-methoxy-2,2-dimethyl-2,3-dihydro-1H-inden-1-yl)carbamate]  22.6 nM
14. COc1ccc2cc(-c3ccc4c(c3)CC(C)(C)C4NC(=O)O[C@@H]3CN4CCC3CC4)ccc2c1 (stereo partly drawn) [Example 189, (S)-quinuclidin-3-yl (5-(6-methoxynaphthalen-2-yl)-2,2-dimethyl-2,3-dihydro-1H-inden-1-yl)carbamate]  23 nM
15. COCCOc1ccc(-c2ccc3c(c2)CC2(CC2)C3NC(=O)O[C@@H]2CN3CCC2CC3)cc1 (stereo partly drawn) [Example 395, (S)-quinuclidin-3-yl (5′-(4-(2-methoxyethoxy)phenyl)-1′,3′-dihydrospiro[cyclopropane-1,2′-inden]-1′-yl)carbamate]  30.9 nM
16. CC1(C)Cc2cc(-c3ccc(N4CCOCC4)c(F)c3)ccc2C1NC(=O)O[C@@H]1CN2CCC1CC2 (stereo partly drawn) [Example 152, (S)-quinuclidin-3-yl (5-(3-fluoro-4-morpholinophenyl)-2,2-dimethyl-2,3-dihydro-1H-inden-1-yl)carbamate]  32.5 nM
17. CCOc1cc(C(F)(F)F)ccc1-c1ccc2c(c1)CC(C)(C)C2NC(=O)O[C@@H]1CN2CCC1CC2 (stereo partly drawn) [Example 250, (S)-quinuclidin-3-yl (5-(2-ethoxy-4-(trifluoromethyl)phenyl)-2,2-dimethyl-2,3-dihydro-1H-inden-1-yl)carbamate]  33 nM
18. CCC1(CC)Cc2cc(-c3ccc(F)cc3)ccc2C1NC(=O)O[C@@H]1CN2CCC1CC2 (stereo partly drawn) [Example 276, (S)-quinuclidin-3-yl (2,2-diethyl-5-(4-fluorophenyl)-2,3-dihydro-1H-inden-1-yl)carbamate]  33.2 nM
19. CC1(C)Cc2cc(-c3cccc(OCCN4CCOCC4)c3)ccc2C1NC(=O)O[C@@H]1CN2CCC1CC2 (stereo partly drawn) [Example 114, (S)-quinuclidin-3-yl (2,2-dimethyl-5-(3-(2-morpholinoethoxy)phenyl)-2,3-dihydro-1H-inden-1-yl)carbamate]  33.7 nM
20. CCCOc1c(C)cc(-c2ccc3c(c2)CC(C)(C)C3NC(=O)O[C@@H]2CN3CCC2CC3)cc1C (stereo partly drawn) [Example 173, (S)-quinuclidin-3-yl (5-(3,5-dimethyl-4-propoxyphenyl)-2,2-dimethyl-2,3-dihydro-1H-inden-1-yl)carbamate]  34.8 nM
21. CCOc1cc(-c2ccc3c(c2)CC(C)(C)C3NC(=O)O[C@@H]2CN3CCC2CC3)ccn1 (stereo partly drawn) [Example 263, (S)-quinuclidin-3-yl (5-(2-ethoxypyridin-4-yl)-2,2-dimethyl-2,3-dihydro-1H-inden-1-yl)carbamate]  34.9 nM
22. CCCOc1cccc(-c2cc3c(cc2F)C(NC(=O)O[C@@H]2CN4CCC2CC4)C(C)(C)C3)c1 (stereo partly drawn) [Example 377, (S)-quinuclidin-3-yl (6-fluoro-2,2-dimethyl-5-(3-propoxyphenyl)-2,3-dihydro-1H-inden-1-yl)carbamate]  35.5 nM
23. O=C(NC1CCc2ccc(-c3ccc(C(F)(F)F)cc3)cc21)O[C@@H]1CN2CCC1CC2 (stereo partly drawn) [Example 27, (S)-quinuclidin-3-yl (6-(4-(trifluoromethyl)phenyl)-2,3-dihydro-1H-inden-1-yl)carbamate]  35.7 nM
24. CC1(C)Cc2cc(-c3cc(Cl)ncc3Cl)ccc2C1NC(=O)O[C@@H]1CN2CCC1CC2 (stereo partly drawn) [Example 119, (S)-quinuclidin-3-yl (5-(2,5-dichloropyridin-4-yl)-2,2-dimethyl-2,3-dihydro-1H-inden-1-yl)carbamate]  38.3 nM
25. COc1cc2c(cc1-c1cc(C)c(OC(C)C)c(C)c1)CC(C)(C)C2NC(=O)O[C@@H]1CN2CCC1CC2 (stereo partly drawn) [Example 348, (S)-quinuclidin-3-yl (5-(4-isopropoxy-3,5-dimethylphenyl)-6-methoxy-2,2-dimethyl-2,3-dihydro-1H-inden-1-yl)carbamate]  44.1 nM
26. COc1cc2c(cc1-c1cccc(C(C)C)c1)CC(C)(C)C2NC(=O)O[C@@H]1CN2CCC1CC2 (stereo partly drawn) [Example 336, (S)-quinuclidin-3-yl (5-(3-isopropylphenyl)-6-methoxy-2,2-dimethyl-2,3-dihydro-1H-inden-1-yl)carbamate]  48 nM
27. CC1(C)Cc2ccc(-c3ccccc3F)cc2C1NC(=O)O[C@@H]1CN2CCC1CC2 (stereo partly drawn) [Example 57, (S)-quinuclidin-3-yl (6-(2-fluorophenyl)-2,2-dimethyl-2,3-dihydro-1H-inden-1-yl)carbamate]  49.9 nM
28. CCOc1ccc(Cl)c(-c2ccc3c(c2)CC(C)(C)C3NC(=O)O[C@@H]2CN3CCC2CC3)c1 (stereo partly drawn) [Example 241, (S)-quinuclidin-3-yl (5-(2-chloro-5-ethoxyphenyl)-2,2-dimethyl-2,3-dihydro-1H-inden-1-yl)carbamate]  51.3 nM
29. O=C(NC1CCc2ccc(-c3ccc(OC(F)(F)F)cc3)cc21)O[C@@H]1CN2CCC1CC2 (stereo partly drawn) [Example 28, (S)-quinuclidin-3-yl (6-(4-(trifluoromethoxy)phenyl)-2,3-dihydro-1H-inden-1-yl)carbamate]  52 nM
30. COc1cccc(-c2cc3c(cc2OC)C(NC(=O)O[C@@H]2CN4CCC2CC4)C(C)(C)C3)c1 (stereo partly drawn) [Example 338, (S)-quinuclidin-3-yl (6-methoxy-5-(3-methoxyphenyl)-2,2-dimethyl-2,3-dihydro-1H-inden-1-yl)carbamate]  53.7 nM
31. CC1(C)Cc2cc(-c3ccc4c(c3)CCO4)ccc2C1NC(=O)O[C@@H]1CN2CCC1CC2 (stereo partly drawn) [Example 113, (S)-quinuclidin-3-yl (5-(2,3-dihydrobenzofuran-5-yl)-2,2-dimethyl-2,3-dihydro-1H-inden-1-yl)carbamate]  54.8 nM
32. CC1(C)Cc2ccc(-c3cc(Cl)ccc3Cl)cc2C1NC(=O)O[C@@H]1CN2CCC1CC2 (stereo partly drawn) [Example 71, (S)-quinuclidin-3-yl (6-(2,5-dichlorophenyl)-2,2-dimethyl-2,3-dihydro-1H-inden-1-yl)carbamate]  64.3 nM
33. CCOc1c(C)cc(-c2cc3c(cc2F)C(NC(=O)O[C@@H]2CN4CCC2CC4)C(C)(C)C3)cc1C (stereo partly drawn) [Example 367, (S)-quinuclidin-3-yl (5-(4-ethoxy-3,5-dimethylphenyl)-6-fluoro-2,2-dimethyl-2,3-dihydro-1H-inden-1-yl)carbamate]  68.2 nM
34. CN(C)CCOc1cccc(-c2ccc3c(c2)CC(C)(C)C3NC(=O)O[C@@H]2CN3CCC2CC3)c1 (stereo partly drawn) [Example 139, (S)-quinuclidin-3-yl (5-(3-(2-(dimethylamino)ethoxy)phenyl)-2,2-dimethyl-2,3-dihydro-1H-inden-1-yl)carbamate]  74.4 nM
35. CC1(C)Cc2ccc(-c3ccc(F)cc3F)cc2C1NC(=O)O[C@@H]1CN2CCC1CC2 (stereo partly drawn) [Example 63, (S)-quinuclidin-3-yl (6-(2,4-difluorophenyl)-2,2-dimethyl-2,3-dihydro-1H-inden-1-yl)carbamate]  117 nM
